Measurements reported in PubChem BioAssay (NCI).
Several values for one entry are separate records, joined by “and”; a condition that tells them apart may be missing. Equal values may be shown once.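 96-well plates; 48 h exposure; 5 concentrations. Endpoints by linear interpolation between flanking doses. Not reached: highest tested concentration assigned. Abbreviation: GI50, concentration required for 50% inhibition of growth. Definition used: TGI = concentration required for complete inhibition of growth.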

Tests used:
Assay in all cases: NCI-60 cell line screen, 48 h
BT-549 breast = system: BT-549 breast
MCF7 breast = system: MCF7 breast
HCT-15 colon = system: HCT-15 colon
A498 renal = system: A498 renal
UO-31 renal = system: UO-31 renal
HCC-2998 colon = system: HCC-2998 colon
HCT-116 colon = system: HCT-116 colon
M14 melanoma = system: M14 melanoma
SK-OV-3 ovarian = system: SK-OV-3 ovarian
HS 578T breast = system: HS 578T breast

Structure (SMILES)	GI50 (BT-549 breast)	TGI (BT-549 breast)	GI50 (MCF7 breast)	TGI (MCF7 breast)	GI50 (HCT-15 colon)	TGI (HCT-15 colon)	GI50 (A498 renal)	TGI (A498 renal)	GI50 (UO-31 renal)	TGI (UO-31 renal)	GI50 (HCC-2998 colon)	TGI (HCC-2998 colon)	GI50 (HCT-116 colon)	TGI (HCT-116 colon)	GI50 (M14 melanoma)	TGI (M14 melanoma)	GI50 (SK-OV-3 ovarian)	TGI (SK-OV-3 ovarian)	GI50 (HS 578T breast)	TGI (HS 578T breast) [µM]
OC(CNC1CCCC1)Cn1c2ccccc2c2ccccc21 (centres undefined)	25.1 µM	> 100 µM	> 100 µM	> 100 µM	80.5 µM	> 100 µM	10.7 µM	47.7 µM	97.2 µM	> 100 µM	> 100 µM	> 100 µM	67.3 µM	> 100 µM	> 100 µM	> 100 µM	20.4 µM	43.4 µM	21.8 µM	83.7
CN(C)CCNC(=O)c1cc2c3ccccc3[nH]c2c2ncccc12	6.36 µM	20.7 µM	4.53 µM	20.9 µM	5.88 µM	25 µM	7.82 µM	21.4 µM	2.13 µM	24.3 µM			3.95 µM	25.3 µM	12.1 µM	27.2 µM	23.5 µM	> 100 µM	3.57 µM	28.1
CCOC(=O)C#Cc1c(CC(=O)OCC)nnn1[C@H]1O[C@@H](CO)[C@@H]2OC(C)(C)O[C@@H]21	9.1 µM	21.2 µM	3.15 µM	14.9 µM	2.52 µM	7.02 µM	17.7 µM	31.5 µM	2.82 µM	10.3 µM	17.7 µM	31.8 µM	2.06 µM	4.1 µM	3.58 µM	12.8 µM	37.3 µM	> 100 µM	25.9 µM	72.2
COc1cc(-c2oc3c(OC)c(O)c(OC)c(O)c3c(=O)c2OC)ccc1O		> 100 µM		> 100 µM		> 100 µM		> 100 µM		85.2 µM		> 100 µM		> 100 µM		96 µM		54.6 µM		40.1
C[CH2][Sn]([CH2]C)([O]C(=O)c1cccc(F)c1)[O][Sn]([CH2]C)([CH2]C)[O]C(=O)c1cccc(F)c1					21 µM	43.3 µM	16.5 µM	30.2 µM	49.8 µM	> 100 µM	76.1 µM	> 100 µM	17.8 µM	32.5 µM	16.9 µM	31.3 µM	> 100 µM	> 100 µM		
c1ccc2c3c([nH]c2c1)C1(CCCCC1)c1c([nH]c2ccccc12)C31CCCCC1						> 100 µM		54 µM		> 100 µM		85.6 µM		37.1 µM		> 100 µM		49.6 µM		
N#C[S-].[Au+].c1ccc(CN2[CH-]N(Cc3ccccc3)C(c3ccccc3)=C2c2ccccc2)cc1	0.47 µM	1.88 µM					0.251 µM	0.822 µM									0.391 µM	3.63 µM	0.744 µM	4.62
O=C1C(=O)c2ccccc2C(O)=C1CCCCCCCCC1CCCCC1		27.5 µM		19.4 µM		19.2 µM				20.6 µM		24.4 µM		12.3 µM		26.2 µM		54.4 µM		39.6
Cc1ccc(N2C(=O)/C(=C/c3ccc(N(CCC#N)CCC#N)cc3C)N=C2c2cc([N+](=O)[O-])ccc2Cl)cc1						> 100 µM		> 100 µM		> 100 µM		> 100 µM		> 100 µM		> 100 µM		> 100 µM		
CC(C)C[C@@H]1NC(=O)[C@@H]2CCCN2C(=O)[C@@H]2CCCN2C(=O)[C@H](CC(C)C)NC(=O)[C@H](CO)NC(=O)[C@H](CCCCN)NC(=O)[C@H]([C@H](C)O)NC(=O)[C@@H]2CCCC[C@@H](NC1=O)C(=O)N[C@@H](Cc1ccccc1)C(=O)N1CCC[C@H]1C(=O)N[C@@H](CC(=O)O)C(=O)NCC(=O)N[C@@H](CCCN=C(N)N)C(=O)N2	> 50 µM	> 50 µM	> 50 µM	> 50 µM	> 50 µM	> 50 µM			> 50 µM	> 50 µM	> 50 µM	> 50 µM	> 50 µM	> 50 µM			> 50 µM	> 50 µM	> 50 µM	> 50
Cc1ccc(S(=O)(=O)Nc2nc3ccccc3nc2Nc2ccc3nsnc3c2)cc1	4.25 µM and 3.42 µM	26.3 µM and > 29.6 µM	6.55 µM and 4.6 µM	> 100 µM	3.61 µM and 3.84 µM	> 100 µM	4.85 µM and 2.86 µM	> 100 µM	1.94 µM and 1.58 µM	19 µM and 6.49 µM	3.47 µM and 3.67 µM	42.9 µM and > 100 µM	3.52 µM	15.4 µM and > 100 µM	4.05 µM and 4.35 µM	> 100 µM	4.76 µM	> 100 µM	5.62 µM and 4.21 µM	> 100
CC1(C)C2C/C(=C\c3ccccc3)C(=O)C1C2 (centres undefined)						> 100 µM		> 100 µM		> 100 µM		> 100 µM		> 100 µM		> 100 µM		> 100 µM		
CCCCCN(CCCCC)CC(O)c1cc2c(c3ccccc13)CCCC2 (centres undefined)	12.4 µM and 13.8 µM	25.5 µM and 29.8 µM	3.65 µM and 4.63 µM	14.1 µM and 16.7 µM	5.31 µM and 6.52 µM	20.8 µM and 26.4 µM	3.34 µM and 10.8 µM	14.1 µM and 23.5 µM	3.79 µM and 6.15 µM	15.6 µM and 22.1 µM	2.54 µM and 4.28 µM	5.99 µM and 15.6 µM	2.7 µM and 2.24 µM	12.8 µM and 13.1 µM	4.76 µM and 10.4 µM	16.3 µM and 23.8 µM	12.4 µM and 17 µM	24.9 µM and 34.8 µM	8.51 µM	23.9
CN1CCn2c(c(Sc3ccc(C(=O)NO)cc3)c3ccccc32)C1=O	1.92 µM	4.3 µM	2.8 µM	> 77.1 µM	2.73 µM	14.3 µM	0.151 µM	1.8 µM	3.1 µM	13.6 µM	1.94 µM	3.76 µM	1.59 µM	3.55 µM	1.77 µM	3.99 µM	2.11 µM	4.8 µM	2.41 µM	> 29
Clc1ccc2c(c1)-c1ccccc1C1=NCCN12	2.41 µM	9.89 µM	2.18 µM	8.58 µM	2.71 µM	9.62 µM			1.28 µM	2.8 µM	1.87 µM	3.76 µM	0.719 µM	6.86 µM	1.56 µM	3.07 µM	2.68 µM	8.64 µM	2.92 µM	11.8
